Results reported in PubChem BioAssay AID330 (DTP/NCI, 2004).
Where “and” joins values, the source holds several entries; their conditions need not be identical. Identical values can stand only once. Inconclusive results and toxic doses are left out.

Tested on: P388 leukemia ip, CD2F1 mice, survival T/C
Experiment: NCI In Vivo Anticancer Drug Screen. Data for tumor model P388 Leukemia (intraperitoneal) in CD2F1 (CDF1) mice
Settings: endpoint: median survival time, higher = longer survival
How it was run: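 Mice carrying the transplanted tumor received test compound or vehicle. Survival was recorded in each group, and the value is the treated-group measurement divided by that of the vehicle-treated control group.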

[1] = dose: 120.0 mg/kg/injection, schedule: Q01DX005 (ip), vehicle: Klucel (hydroxypropylcellulose) (HPC)
[2] = dose: 240.0 mg/kg/injection, schedule: Q01DX005 (ip), vehicle: Klucel (hydroxypropylcellulose) (HPC)
[3] = dose: 12.5 mg/kg/injection, schedule: Q01DX009 (ip), vehicle: saline
[4] = dose: 50.0 mg/kg/injection, schedule: Q01DX009 (ip), vehicle: saline
[5] = dose: 50.0 mg/kg/injection, schedule: Q01DX005 (ip), vehicle: saline with Tween-80
[6] = dose: 100.0 mg/kg/injection, schedule: Q01DX005 (ip), vehicle: saline with Tween-80
[7] = dose: 200.0 mg/kg/injection, schedule: Q01DX005 (ip), vehicle: saline with Tween-80
[8] = dose: 60.0 mg/kg/injection, schedule: Q01DX005 (ip), vehicle: saline with Tween-80
[9] = dose: 120.0 mg/kg/injection, schedule: Q01DX005 (ip), vehicle: saline with Tween-80
[10] = dose: 15.0 mg/kg/injection, schedule: Q01DX005 (ip), vehicle: saline with Tween-80

Compound: O=C(O)c1cnc2cc3c(cc2c1Nc1cccc(C(F)(F)F)c1)OCO3
- T/C (dose: 60.0 mg/kg/injection, schedule: Q01DX005 (ip), vehicle: Klucel (hydroxypropylcellulose) (HPC)): 99 % of control
- T/C [1]: 96 % of control
- T/C [2]: 96 % of control

Compound: O=C1NC(CCO)C(=O)NC1CCO (configuration not stated)
- T/C (dose: 50.0 mg/kg/injection, schedule: Q01DX005 (ip), vehicle: saline): 100 % of control
- T/C (dose: 100.0 mg/kg/injection, schedule: Q01DX005 (ip), vehicle: saline): 100 % of control
- T/C (dose: 200.0 mg/kg/injection, schedule: Q01DX005 (ip), vehicle: saline): 106 % of control

Compound: CNS(=O)(=O)c1ccc2c(c1)nc(SC)n2C
- T/C (dose: 100.0 mg/kg/injection, schedule: Q01DX009 (ip), vehicle: saline with Tween-80): 100 % of control
- T/C (dose: 200.0 mg/kg/injection, schedule: Q01DX009 (ip), vehicle: saline with Tween-80): 100 % of control
- T/C (dose: 400.0 mg/kg/injection, schedule: Q01DX009 (ip), vehicle: saline with Tween-80): 95 % of control

Compound: CC(C)c1cc(C(C)C)c(S(=O)(=O)N/N=C2\C=CCC(C)(C)C2)c(C(C)C)c1
- T/C (dose: 50.0 mg/kg/injection, schedule: Q01DX009 (ip), vehicle: DMSO): 87 % of control
- T/C (dose: 100.0 mg/kg/injection, schedule: Q01DX009 (ip), vehicle: DMSO): 89 % of control
- T/C (dose: 200.0 mg/kg/injection, schedule: Q01DX009 (ip), vehicle: DMSO): 97 % of control

Compound: CCCCCCCCCCCC(C)[N+](C)(C)[O-] (configuration not stated)
- T/C [3]: 102 % of control
- T/C (dose: 25.0 mg/kg/injection, schedule: Q01DX009 (ip), vehicle: saline): 96 % of control
- T/C [4]: 87 % of control and 91 % of control

Compound: NC(N)=N/N=C/c1ccc[nH]1
- T/C [5]: 104 % of control
- T/C [6]: 106 % of control
- T/C [7]: 104 % of control

Compound: CCN(CC)CC(=O)O[C@]1(CC)C(=O)OCc2c1cc1n(c2=O)Cc2cc3ccccc3nc2-1
- T/C (dose: 0.5 mg/kg/injection, schedule: Q01DX005 (ip), vehicle: water): 110 % of control
- T/C (dose: 1.0 mg/kg/injection, schedule: Q01DX005 (ip), vehicle: water): 115 % of control
- T/C (dose: 2.0 mg/kg/injection, schedule: Q01DX005 (ip), vehicle: water): 115 % of control
- T/C (dose: 8.0 mg/kg/injection, schedule: Q01DX005 (ip), vehicle: water): 161 % of control and 163 % of control

Compound: CCOC(=O)c1nn(C)c(=O)[nH]c1=O
- T/C [5]: 99 % of control
- T/C [6]: 100 % of control
- T/C [7]: 100 % of control

Compound: COC(=O)c1ncn(C(C(=O)OC)C(=O)OC)c1O
- T/C [8]: 104 % of control
- T/C [9]: 100 % of control
- T/C (dose: 240.0 mg/kg/injection, schedule: Q01DX005 (ip), vehicle: saline with Tween-80): 113 % of control

Compound: N=c1oc(-c2ccccc2)cc2ccccc12
- T/C (dose: 6.25 mg/kg/injection, schedule: Q01DX005 (ip), vehicle: Klucel (hydroxypropylcellulose) (HPC)): 104 % of control
- T/C (dose: 12.5 mg/kg/injection, schedule: Q01DX005 (ip), vehicle: Klucel (hydroxypropylcellulose) (HPC)): 100 % of control
- T/C (dose: 25.0 mg/kg/injection, schedule: Q01DX005 (ip), vehicle: Klucel (hydroxypropylcellulose) (HPC)): 104 % of control

Compound: CC1CN2CC(C)O[Si](CCCCCC[Si]34OC(C)CN(CC(C)O3)CC(C)O4)(O1)OC(C)C2 (configuration not stated)
- T/C (dose: 50.0 mg/kg/injection, schedule: Q01DX005 (ip), vehicle: Klucel (hydroxypropylcellulose) (HPC)): 108 % of control
- T/C (dose: 100.0 mg/kg/injection, schedule: Q01DX005 (ip), vehicle: Klucel (hydroxypropylcellulose) (HPC)): 97 % of control
- T/C (dose: 200.0 mg/kg/injection, schedule: Q01DX005 (ip), vehicle: Klucel (hydroxypropylcellulose) (HPC)): 97 % of control

Compound: O=S(=O)(O)c1cc2nonc2c2ccccc12
- T/C [5]: 98 % of control
- T/C [6]: 98 % of control
- T/C [7]: 95 % of control

Compound: CN(C)C(=O)n1ccc(NC=O)n1
- T/C [4]: 92 % of control
- T/C (dose: 100.0 mg/kg/injection, schedule: Q01DX009 (ip), vehicle: saline): 94 % of control
- T/C (dose: 200.0 mg/kg/injection, schedule: Q01DX009 (ip), vehicle: saline): 103 % of control

Compound: NNc1cnc2ccccc2n1
- T/C (dose: 1.88 mg/kg/injection, schedule: Q01DX009 (ip), vehicle: suspension in saline): 93 % of control
- T/C (dose: 18.8 mg/kg/injection, schedule: Q04DX003 (ip), vehicle: saline): 101 % of control and 106 % of control
- T/C (dose: 37.5 mg/kg/injection, schedule: Q01DX009 (ip), vehicle: suspension in saline): 95 % of control
- T/C (dose: 37.5 mg/kg/injection, schedule: Q04DX003 (ip), vehicle: saline): 100 % of control and 103 % of control
- T/C (dose: 75.0 mg/kg/injection, schedule: Q01DX009 (ip), vehicle: suspension in saline): 90 % of control
- T/C (dose: 75.0 mg/kg/injection, schedule: Q04DX003 (ip), vehicle: saline): 100 % of control and 107 % of control

Compound: O=C(NCCN(C(=O)C12CC3CC(CC(C3)C1)C2)c1ccc(F)cc1)C12CC3CC(CC(C3)C1)C2
- T/C (dose: 6.25 mg/kg/injection, schedule: Q01DX009 (ip), vehicle: saline with Tween-80): 105 % of control
- T/C (dose: 12.5 mg/kg/injection, schedule: Q01DX009 (ip), vehicle: saline with Tween-80): 92 % of control
- T/C (dose: 25.0 mg/kg/injection, schedule: Q01DX009 (ip), vehicle: saline with Tween-80): 100 % of control

Compound: CCOC(=O)c1cnc(Sc2ccc([N+](=O)[O-])cc2[N+](=O)[O-])nc1N
- T/C (dose: 100.0 mg/kg/injection, schedule: Q04DX003 (ip), vehicle: saline): 93 % of control
- T/C (dose: 200.0 mg/kg/injection, schedule: Q04DX003 (ip), vehicle: saline): 100 % of control
- T/C (dose: 400.0 mg/kg/injection, schedule: Q04DX003 (ip), vehicle: saline): 98 % of control

Compound: NS(=O)(=O)c1ccc(C(=O)O)s1
- T/C [5]: 104 % of control
- T/C [6]: 100 % of control

Compound: Nc1ccccc1S(=O)(=O)Nc1c(N)nc(SCC(=O)O)[nH]c1=O
- T/C [10]: 98 % of control and 101 % of control
- T/C (dose: 30.0 mg/kg/injection, schedule: Q01DX005 (ip), vehicle: saline with Tween-80): 100 % of control and 95 % of control
- T/C [8]: 100 % of control and 95 % of control
- T/C [1]: 87 % of control and 96 % of control
- T/C [9]: 99 % of control and 98 % of control
- T/C [2]: 98 % of control and 93 % of control

Compound: COc1cc(O)c(/C=N/NC(=S)NC23CC4CC(CC(C4)C2)C3)c(OC)c1
- T/C (dose: 7.5 mg/kg/injection, schedule: Q01DX005 (ip), vehicle: saline with Tween-80): 105 % of control
- T/C [10]: 101 % of control and 103 % of control
- T/C [8]: 93 % of control

Compound: CC(C)(C)C1(C(C)(C)C)CO1
- T/C (dose: 6.25 mg/kg/injection, schedule: Q01DX009 (ip), vehicle: saline): 98 % of control
- T/C [3]: 96 % of control

Compound: CNC(=O)OCc1c(COC(=O)NC)c2n(c1C)-c1ccc(OC)cc1CCC2
- T/C (dose: 7.5 mg/kg/injection, schedule: Q01DX005 (ip), vehicle: Klucel (hydroxypropylcellulose) (HPC)): 119 % of control
- T/C (dose: 15.0 mg/kg/injection, schedule: Q01DX005 (ip), vehicle: Klucel (hydroxypropylcellulose) (HPC)): 122 % of control
